Experimental data taken from US7875638B2, “Synthesis of epothilones, intermediates thereto, analogues and uses thereof” (Sloan-Kettering Institute for Cancer Research, priority 2002, dated 2011).
Converted amounts (≈) assume the structure as drawn. “And” between values parts separate entries of the source, which are not always exact repeats. Equal entries are not always repeated. “Also recorded” adds a separate entry of the source. Where two headings read alike, the source gives them in different places.

Experiments:
[1] = test system: CCRF-CEM; settings: for Potency compared with EpoB (51): sensitive and resistant cell lines
Experimental: (§1) Cytotoxicity Assays. In preparation for in vitro cytotoxicity assays, cells were cultured at an initial density 2-5×10^4 cells per milliliter. […] For both methods, the absorbance of each well was measured with a microplate reader (Power Wave XS, Bio-Tek, Winooski, Vt.).
(§2) A typical experiment involves culturing cells (e.g., CCRF-CEM) at an initial density of 2-5×10^4 cells per ml. […] For cells that were grown in suspension (such as CCRF-CEM and its sublines), cytotoxicitiy is measured by using the 2,-3-bis(2-methoxy-4-nitro-5-sulfophenyl)-5 carboxanilide)-2H terazodium hydroxide (XTT)-microculture tetrazonium method in duplicate in 96-well microtiter plates. For both methods, the absorbance of each well is measured with a microplate reader (EL-340, Bio-Tek, Burlington, Vt.). Each run entails six or seven concentrations of the tested drugs. Dose-effect relationship data are analyzed with the median-effect plot.
(§3) Cytotoxicity Assays: In preparation for in vitro cytotoxicity assays, cells were cultured at an initial density 2-5×10^4 cells per milliliter. […] For both methods, the absorbance of each well was measured with a microplate reader (Power Wave XS, Bio-Tek, Winooski, Vt.).

[2] = test system: human colon carcinoma HCT-116 xenograft; test: HCT-116 xenograft in nude mice
[3] = test system: human T-cell lymphoblastic leukemia CCRF-CEM/Taxol xenograft; test: CCRF-CEM/Taxol xenograft in nude mice; type: in vivo
[4] = test system: CCRF-CEM/Taxol; type: cell-based, human; settings: for IC50: Homo sapiens, CCRF-CEM
[5] = test system: human xenografts in nude mice, such as MX-1; parameters: Relative therapuetic index at MTD: key to the marks not given beside the values; settings: for Relative therapuetic index at MTD: graded at maximal tolerated dose
[6] = test system: human mammary carcinoma MX-1 xenograft; test: MX-1 xenograft in nude mice
[7] = test system: human colon carcinoma HCT-116 xenograft
[8] = test system: A549/taxol cells
Experimental: as §1

[9] = test system: human mammary carcinoma MX-1 xenograft
[10] = Octanol-water partition (POW) number by HPLC; type: physicochemical; settings: HPLC estimate, pH 7.4 buffer; read-out: Lipophilicity octanol/water partition (POW)
Experimental: Determination of partition of octanol-water (POW) number. An HPLC method is used to estimate octanol-water partition. An Agilent 1100 HPLC system is used with an eclipse XDB C18 column 4.6×250 mm with a mobile phase of 60% acetonitrile/40% 25 mM potassium phosphate buffer at pH 7.4 with a flow rate of 0.8 ml per min. and the eluent is monitored at 250 nm. The standards used are benzyl alcohol, acetophenone, benzophenone, naphthalene, diphenyl ether and dibenzyl with known POW of […] respectively. Sodium dichromate is used to evaluate time zero which is 2.5 min and the retention times for the standards are 3.9, 5.4, 10.6, 14, 18.7 and 19.8 min, respectively. The k value is calculated by the formula of k=(trt−t0)/t0. Linear regression of log k vs. log POW gives a straight line with r^2=0.966. This graph is used to evaluate the POW value of the epothilone analogs.

[11] = in vitro; settings: mouse
Experimental: (§4) Stability of epothilones in mouse and in human liver S9 fraction. The stability study was carried out with a fully automated HPLC system which consisted of a Prospekt-2 (Spark Holland, Netherlands) sample preparation system and an Agilent 1100 HPLC system. Briefly, the Prospekt 2 picked up a C8 extraction cartridge and washed it with acetonitrile and water. The Agilent autosampler, set at 37° C., picked up 20 μl of the sample, loaded it onto the cartridge, washed it with water, then the Prospekt-2 diverted the mobile phase stream through the extraction cartridge onto the analytical column, Reliance Stable Bond C8 4×80 mm with guard column (MacMod, Chadds Ford, Pa.) and the eluent was monitored at 250 nm. […] Sample preparation involved the addition of equal volumes of plasma to PBS for a total volume of 300-400 μl, filtered, and the addition of 0.5-2 μl of the substrate (20 mM) to achieve about 30-50 mAU at 250 nm in the HPLC analysis. For pooled human liver microsome S9 fraction (Xeno Tech, Lenex, Kans.), 20 μl (400 μg) or S9 fraction was mixed with 280 μl of PBS then proceeded as above. The sampling period was controlled by the autosampler and peak area data were collected to compare the rate of disappearance of the parent compound.
(§5) Stability of epothilones in mouse and in human liver S9 fraction: The stability study was carried out with a fully automated HPLC system which consisted of a Prospekt-2 (Spark Holland, Netherlands) sample preparation system and an Agilent 1100 HPLC system. Briefly, the Prospekt 2 picked up a C8 extraction cartridge and washed it with acetonitrile and water. The Agilent autosampler, set at 37° C., picked up 20 μl of the sample, loaded it onto the cartridge, washed it with water, then the Prospekt-2 diverted the mobile phase stream through the extraction cartridge onto the analytical column, Reliance Stable Bond C8 4×80 mm with guard column (MacMod, Chadds Ford, Pa.) and the eluent was monitored at 250 nm. […] Sample preparation involves the addition of equal volumes of plasma to PBS for a total volume of 400 μl, filtered, and the addition of 0.5-2 μl of the substrate (20 mM) to achieve about 30-50 mAU at 250 nm in the HPLC analysis. For pooled human liver microsome S9 fraction (Xeno Tech, Lenex, Kans.), 20 μl (400 μg) or S9 fraction was mixed with 280 μl of PBS then proceeds as above. The sampling period was controlled by the autosampler and peak area data were collected to compare the rate of disappearance of the parent compound.

[12] = in vitro; settings: human
Experimental: as §4, §5

[13] = Solubility in water; settings: for solubility: water
[14] = test system: CCRF-CEM; settings: human, CCRF-CEM leukemic cells, 72 h
Experimental: as §1, §2, §3

[15] = for Slower drug degradation in murine plasma as compared to dEpoB (1), factor: exposure to murine plasma
Experimental: as §4, §5

[16] = preliminary metabolic degradation studies
[17] = XTT assay following 72 h inhibition, Table 1-4, read-out: IC50, CCRF-CEM/Taxol
[18] = read-out: IC50, CCRF-CEM, XTT assay following 72 h inhibition, Table 1-4
[19] = read-out: CCRF-CEM (IC50 (μM)), XTT assay following 72 h inhibition, Table 1-1
[20] = XTT assay following 72 h inhibition, Table 1-2, read-out: IC50 (μM), CCRF-CEM/Taxol
[21] = XTT assay following 72 h inhibition, Table 1-3, read-out: IC50, C/Taxol
[22] = 72 h, read-out: IC50, CCRF-CEM/Taxol

CC1=C/C[C@@H](/C(C)=C/c2csc(C)n2)OC(=O)C[C@H](O)C(C)(C)C(=O)[C@H](C)[C@@H](O)[C@@H](C)C\C=C\1 [Compound 6, epothilone 490, reference compound]
IC50 ([1]; read-out: CCRF-CEM (IC50 (μM))): 0.02 µM

C/C(=C\c1csc(C)n1)[C@@H]1C[C@@H]2O[C@]2(C)C/C=C/[C@H](C)[C@H](O)[C@@H](C)C(=O)C(C)(C)[C@@H](O)CC(=O)O1 [Compound 49, (E)-9,10-dehydroepothilone B]
Mice died of toxicity within three days after the sixth dosage ([2]; 0.6 mg/kg, Q2Wx6, 6 hour infusion): four out of four | Therapeutic effect on CCRF-CEM/Taxol xenograft ([3]; 0.6 mg/kg, Q3Dx5,x2): abolished tumor growth | IC50 [4, 17]: 0.00042 µM | IC50 in vitro (FIG. 94) [1]: sub-nanomolar | IC50 [1, 18]: 0.00023 µM | Potency compared with EpoB (51) [1]: ~3 fold and 2-4 fold | Antitumor effect in human solid tumor xenograft models ([5]; mouse, in vivo): strongly suppressed tumor growth | Therapeutic effect on MX-1 xenograft ([6]; 0.4-0.6 mg/kg, every three days 9-11 times, 6 hour iv infusion): shrinkage and disappearance of the tumor | Therapeutic effect on MX-1 xenograft ([6]; every other day for 8 doses): tumor growth suppression but no shrinkage of the tumor | Body weight recovery, % of the control ([6]; every other day for 9 doses, second to eighth day): 76% to 82%

CC(=O)O[C@H]1C(=O)[C@@]2(C)[C@H]([C@H](OC(=O)c3ccccc3)[C@]3(O)C[C@H](OC(=O)[C@H](O)[C@@H](NC(=O)c4ccccc4)c4ccccc4)C(C)=C1C3(C)C)[C@]1(OC(C)=O)CO[C@@H]1C[C@@H]2O [Paclitaxel, reference compound]
Tumor relapse during follow-up to D200 ([2]; Fludelone 20 and 30 mg/kg, Taxol 20 mg/kg): tumor relapse occurred on D71, 75, 81 and 81; also recorded: relapses on D71, 75, 81, and 81 | Tumor disappearance (mice) ([2]; Q2Dx4, 6 hr-i.v. infusion for 3 cycles, F3-deH-dEpoB 20 and 30 mg/kg, Taxol 20 mg/kg): 4 out of 4 | Relapse, time after stopping treatment ([7]; 20 mg/kg): 1.1 months | Cell kill ([7]; 96 h): 2.56 log | Tumor suppression ([7]; 96 h): 99.7% | Resistance of A549/taxol cells [8]: 44 fold | Final tumor suppression on D34 ([3]; 20 mg/kg): 75.6% | Therapeutic effect on CCRF-CEM/Taxol xenograft ([3]; 20 mg/kg, 6 hr-i.v. infusion, listed as Taxol): only partial suppression of tumor growth and failed to achieve tumor shrinkage; also recorded: tumor growth suppression but with little or no tumor shrinkage | Resistance of CCRF-CEM/Taxol subline [4]: 44 fold | Tumor reappeared on day 10 after administration (mice) ([9]; 20 mg/kg): 2/7 | Tumor free after Q2Dx6 6 hr-iv. infusion (mice) ([9]; 20 mg/kg, 6 h): 7/7 | Mice relapsed on day 10 after suspension of treatment ([9]; 20 mg/kg, 240 h): 2/7 | Effect of oral administration on MX-1 xenografts ([6]; oral): did not affect the tumor

[17]ddEpoB [Compound 23, reference compound]
IC50 [1, 19]: 0.04 µM

C/C1=C/C[C@@H](/C(C)=C/c2csc(C)n2)OC(=O)C[C@H](O)C(C)(C)C(=O)[C@H](C)[C@@H](O)[C@@H](C)/C=C/C1 [Compound 28, trans-9,10-dehydro-12,13-desoxyepothilone B]
chromatographic logP [10]: 3.3 | half-life ([11]; mouse plasma): 1.4 ± 0.1 h | IC50 [4, 20]: 0.0017 µM | IC50 [4, 21]: 0.0012 µM | IC50 [4, 17]: 0.0012 µM | Enhancement of drug potency in xenograft experiments with MX-1 tumors [9]: ca. 10 fold | half-life ([12]; pooled human liver S9 fraction): 4.9 ± 0.7 h | IC50 in vitro (FIG. 94) [1]: sub-nanomolar | IC50 ([1]; XTT assay following 72 h inhibition, Table 1-2): 0.0014 µM | IC50 ([1]; XTT assay following 72 h inhibition, Table 1-3): 0.0009 µM | IC50 ([1]; XTT assay following 72 h inhibition, Table 1-4): 0.0009 µM | Potency in direct comparison with dEpoB (1) ([1]; tumor cell lines of Table 1-2): nearly three times more potency | Water solubility relative to other epothilones [13]: greatly increased water solubility | solubility [13]: 27 µg/mL (≈ 55.1 µM) | Relative therapuetic index at MTD [5]: ++++ | Antitumor effect in human solid tumor xenograft models ([5]; mouse, in vivo): strongly suppressed tumor growth | Dose accomplishing complete suppression of tumor in a variety of xenografts ([5]; mouse, in vivo): 3 mg/kg | Efficacy compared with dEpoB ([5]; mouse, in vivo): three times more efficacious | Maximal b.w. % drop without death ([5]; mouse, in vivo): 29% | Therapeutic dose regimen for Q2D 6 hr-iv infusion ([5]; mouse, in vivo, iv): 3 to 4 mg/kg | Therapeutic effect on MX-1 xenograft ([6]; mouse, in vivo): tumor disappearance | IC50 [14]: 0.9 ± 0.4 nM

C/C(=C\c1csc(C)n1)[C@@H]1C/C=C(/C(F)(F)F)CCC[C@H](C)[C@H](O)[C@@H](C)C(=O)C(C)(C)[C@@H](O)CC(=O)O1 [Compound 2, 26-trifluoro-12,13-desoxyepothilone B]
chromatographic logP [10]: 4.1 | half-life ([11]; plasma): 1.1 ± 0.117 h | IC50 [4, 21]: 0.018 µM | half-life ([12]; s9): 1.6 ± 0.4 h | IC50 ([1]; human): 0.0093 ± 0.0052 µM | IC50 ([1]; read-out: IC50, CCRF-CEM(C), XTT assay following 72 h inhibition, Table 1-3): 0.0041 µM | Slower drug degradation in murine plasma as compared to dEpoB (1), factor [15]: by a factor of seven | solubility [13]: 8 µg/mL (≈ 14.7 µM) | Maximal b.w. % drop without death ([5]; mouse, in vivo): 22% | Therapeutic dose regimen for Q2D 6 hr-iv infusion ([5]; mouse, in vivo, iv): 15 to 20 mg/kg

C/C(=C\c1csc(CO)n1)C1C/C=C(/C(F)(F)F)C/C=C/[C@H](C)[C@H](O)[C@@H](C)C(=O)C(C)(C)[C@@H](O)CC(=O)O1 (some centres unmarked) [Compound 59, 26-trifluoro-9,10-dehydro-dEpoF]
Water solubility relative to other epothilones [13]: greatly increased water solubility

C/C1=C/C[C@@H](/C(C)=C/c2csc(CO)n2)OC(=O)C[C@H](O)C(C)(C)C(=O)[C@H](C)[C@@H](O)[C@@H](C)/C=C/C1 [Compound 57, 9,10-dehydro-dEpoF]
IC50 [4, 20]: 0.00073 µM | IC50 in vitro (FIG. 94) [1]: sub-nanomolar | IC50 ([1]; read-out: IC50 (μM), CCRF-CEM, XTT assay following 72 h inhibition, Table 1-2): 0.00051 µM | Slower drug degradation in murine plasma as compared to dEpoB (1), factor [15]: ca. 7 | Water solubility relative to other epothilones [13]: greatly increased water solubility | Antitumor effect in human solid tumor xenograft models ([5]; mouse, in vivo): strongly suppressed tumor growth

C/C(=C\c1csc(C)n1)[C@@H]1C/C=C(/C(F)(F)F)C/C=C/C[C@H](C)[C@H](O)[C@@H](C)C(=O)C(C)(C)[C@@H](O)CC(=O)O1 [Compound 19, 27-F3-[17]ddEpoB]
Degradation on exposure to human plasma [16]: remained mostly intact | IC50 [1, 19]: 0.068 µM | Degradation on exposure to nude mouse plasma ([15]; preliminary metabolic degradation studies): remained mostly intact

C/C(=C\c1csc(C)n1)[C@@H]1C[C@H]2O[C@@]2(C)C/C=C/[C@H](C)[C@H](O)[C@@H](C)C(=O)C(C)(C)[C@@H](O)CC(=O)O1 [Compound 50]
IC50 [4, 17]: 0.0802 µM | IC50 [1, 18]: 0.0134 µM | Potency compared with EpoB (51) [1]: much lower activity | Potency compared with EpoB (51) ([1]; listed as unnatural α-oxirane): virtually devoid of activity

C/C(=C\c1csc(C)n1)[C@@H]1C[C@@H]2O[C@]2(C)CCC[C@H](C)[C@H](O)[C@@H](C)C(=O)C(C)(C)[C@@H](O)CC(=O)O1 [Compound 51, Epothilone B, reference compound]
half-life ([11]; plasma): 0.95 h | IC50 [4, 22]: 0.0011 µM | half-life ([12]; s9): 15.8 h | IC50 in vitro (FIG. 94) [1]: sub-nanomolar | IC50 ([1]; read-out: Cytotoxic Efficacy IC50, CCRF-CEM leukemic cells, range of two experiments, seven concentration points): 0.00053 ± 0.0002 µM | IC50 [1, 18]: 0.00062 µM | Therapeutic dose regimen for Q2D 6 hr-iv infusion ([5]; Q2D 6 hr-iv infusion): 0.6 to 0.8 mg/kg | Relative therapuetic index at MTD [5]: +++ | Maximal b.w. % drop without death ([5]; nude mice): 15%

C/C(=C\c1csc(C)n1)[C@@H]1C[C@H]2O[C@@]2(C)CCC[C@H](C)[C@H](O)[C@@H](C)C(=O)C(C)(C)[C@@H](O)CC(=O)O1 [Compound 52]
IC50 [4, 22]: 0.151 µM | IC50 [1, 18]: 0.083 µM | Potency compared with EpoB (51) [1]: much lower activity
